Reference: ChEMBL document CHEMBL5154882, “Discovery of 4-Hydroxyquinazoline Derivatives as Small Molecular BET/PARP1 Inhibitors That Induce Defective Homologous Recombination and Lead to Synthetic Lethality for Triple-Negative Breast Cancer Therapy” (J Med Chem, 2022)
pIC50: −log10 of the molar value.

Key:
MDA-MB-231 = test: Antiproliferative activity against human MDA-MB-231 cells assessed as reduction in cell viability incubated for 72 hrs by MTT assay; assay type: functional, cell-based; details: MDA-MB-231, 72 h
MDA-MB-468 = test: Antiproliferative activity against human MDA-MB-468 cells assessed as reduction in cell viability incubated for 72 hrs by MTT assay; assay type: functional, cell-based; details: MDA-MB-468, 72 h
[1] = target: Bromodomain-containing protein 4 (Homo sapiens, UniProt O60885); test: Inhibition of BRD4 (unknown origin) at 1 uM relative to control
[2] = target: Poly [ADP-ribose] polymerase 1 (Homo sapiens, UniProt P09874); test: Inhibition of PARP1 (unknown origin) at 1 uM relative to control
Sequence of Poly [ADP-ribose] polymerase 1 (P09874 whole entry): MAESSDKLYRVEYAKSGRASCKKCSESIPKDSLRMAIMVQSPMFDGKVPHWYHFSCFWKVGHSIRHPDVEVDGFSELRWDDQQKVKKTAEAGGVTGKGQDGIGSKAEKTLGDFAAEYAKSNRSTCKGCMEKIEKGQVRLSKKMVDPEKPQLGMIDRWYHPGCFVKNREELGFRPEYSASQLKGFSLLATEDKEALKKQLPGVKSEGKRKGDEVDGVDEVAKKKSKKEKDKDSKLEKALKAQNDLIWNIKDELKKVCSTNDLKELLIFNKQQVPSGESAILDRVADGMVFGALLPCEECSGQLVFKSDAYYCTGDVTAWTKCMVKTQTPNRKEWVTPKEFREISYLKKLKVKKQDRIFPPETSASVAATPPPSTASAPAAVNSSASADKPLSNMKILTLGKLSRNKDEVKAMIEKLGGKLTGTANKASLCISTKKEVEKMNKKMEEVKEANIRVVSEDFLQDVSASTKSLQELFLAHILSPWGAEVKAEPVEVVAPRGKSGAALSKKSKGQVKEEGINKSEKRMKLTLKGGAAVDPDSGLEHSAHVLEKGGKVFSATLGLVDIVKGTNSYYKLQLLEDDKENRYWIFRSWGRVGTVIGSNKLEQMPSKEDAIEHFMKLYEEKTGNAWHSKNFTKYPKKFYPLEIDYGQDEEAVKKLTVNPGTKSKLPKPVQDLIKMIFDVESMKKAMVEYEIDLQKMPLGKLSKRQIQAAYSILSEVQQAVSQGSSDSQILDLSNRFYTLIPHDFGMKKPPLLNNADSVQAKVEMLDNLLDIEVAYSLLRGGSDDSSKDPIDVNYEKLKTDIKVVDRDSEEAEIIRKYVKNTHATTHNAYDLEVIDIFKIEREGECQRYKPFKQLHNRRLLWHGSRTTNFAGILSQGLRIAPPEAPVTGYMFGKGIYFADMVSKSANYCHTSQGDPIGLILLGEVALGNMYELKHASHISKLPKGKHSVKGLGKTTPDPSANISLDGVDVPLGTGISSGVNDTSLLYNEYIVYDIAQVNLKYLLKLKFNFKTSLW

| Compound | pIC50 (MDA-MB-231) | pIC50 (MDA-MB-468) | inhibition [1] | inhibition [2] |
| --- | --- | --- | --- | --- |
| O=c1[nH]c(-c2cc(Cc3n[nH]c(=O)c4ccccc34)ccc2F)nc2ccccc12 | 4.50 | 4.53 | 31.6% | 59.6% |
| O=c1[nH]c(-c2cc(F)cc(Cc3n[nH]c(=O)c4ccccc34)c2)nc2ccc(Cl)cc12 | 4.82 | 4.91 | 54.5% | 78% |
| O=c1[nH]c(-c2ccc(Cc3n[nH]c(=O)c4ccccc34)c(F)c2)nc2ccc(F)cc12 | 4.66 | 4.76 | 53.3% | 38.2% |
| COc1cc(OC)c2c(=O)[nH]c(-c3cccc(Cc4n[nH]c(=O)c5ccc(Cl)cc45)c3)nc2c1 | 4.81 | 4.89 | 72.2% | 43.2% |
| O=c1[nH]c(-c2ccc(Cc3n[nH]c(=O)c4ccccc34)cc2)nc2ccc(Br)cc12 | 4.61 | 4.73 | 46% | 53.3% |
| O=c1[nH]c(-c2cc(Cc3n[nH]c(=O)c4ccccc34)ccc2F)nc2ccc(F)cc12 | 4.73 | 4.72 | 43.7% | 68.5% |
| COc1cc(OC)c2nc(-c3ccc(Cc4n[nH]c(=O)c5ccccc45)c(C)c3)[nH]c(=O)c2c1 | 4.75 | 4.88 | 67.8% | 55% |
| COc1cc(-c2nc3ccc(Cl)cc3c(=O)[nH]2)ccc1Cc1n[nH]c(=O)c2ccccc12 | 4.51 | 4.45 | 45.8% | 37.1% |
| COc1cc(-c2nc3ccccc3c(=O)[nH]2)ccc1Cc1n[nH]c(=O)c2ccccc12 | < 4.40 | < 4.40 | 31.3% | 46.5% |
| Cc1cccc2nc(-c3cc(F)cc(Cc4n[nH]c(=O)c5ccccc45)c3)[nH]c(=O)c12 | 4.81 | 4.81 | 47.8% | 76.4% |
| COc1cc(OC)c2nc(-c3cc(Cc4n[nH]c(=O)c5ccccc45)ccc3F)[nH]c(=O)c2c1 | 4.66 | 4.73 | 47.5% | 72% |
| COc1ccc2nc(-c3cc(F)cc(Cc4n[nH]c(=O)c5ccccc45)c3)[nH]c(=O)c2c1 | 4.81 | 4.91 | 51.3% | 72.1% |
| O=c1[nH]c(-c2cc(F)cc(Cc3n[nH]c(=O)c4ccccc34)c2)nc2ccc(F)cc12 | 4.88 | 4.92 | 51.2% | 77.5% |
| O=c1[nH]c(-c2ccc(Cc3n[nH]c(=O)c4ccccc34)c(F)c2)nc2ccccc12 | 4.50 | 4.53 | 35.1% | 47.2% |
| Cc1cc(-c2nc3ccc(F)cc3c(=O)[nH]2)ccc1Cc1n[nH]c(=O)c2ccccc12 | 4.60 | 4.69 | 54.2% | 49.5% |
| COc1cc(OC)c2c(=O)[nH]c(-c3ccc(Cc4n[nH]c(=O)c5ccccc45)c(F)c3)nc2c1 | 4.55 | 4.59 | 63.5% | 35.9% |
| COc1cc(-c2nc3ccc(F)cc3c(=O)[nH]2)ccc1Cc1n[nH]c(=O)c2ccccc12 | 4.59 | 4.50 | 41.5% | 36.1% |
| COc1ccc2nc(-c3ccc(Cc4n[nH]c(=O)c5ccccc45)cc3)[nH]c(=O)c2c1 | 4.72 | 4.80 | 45.5% | 57.4% |
| COc1cc(-c2nc3cccc(C)c3c(=O)[nH]2)ccc1Cc1n[nH]c(=O)c2ccccc12 | < 4.40 | < 4.40 | 34.4% | 37.2% |

| Compound | pIC50 (MDA-MB-231) | pIC50 (MDA-MB-468) | inhibition [1] | inhibition [2] |
| --- | --- | --- | --- | --- |
| COc1ccc2nc(-c3cc(Cc4n[nH]c(=O)c5ccccc45)ccc3F)[nH]c(=O)c2c1 | 4.64 | 4.62 | 41% | 70.7% |
| COc1cc(OC)c2c(=O)[nH]c(-c3cc(F)cc(Cc4n[nH]c(=O)c5ccccc45)c3)nc2c1 | 5.01 | 5.13 | 63.4% | 82.8% |
| Cc1cc(-c2nc3ccc(Br)cc3c(=O)[nH]2)ccc1Cc1n[nH]c(=O)c2ccccc12 | 4.55 | 4.61 | 52.3% | 43.8% |
| O=c1[nH]c(-c2cc(Cc3n[nH]c(=O)c4ccccc34)ccc2F)nc2ccc(Br)cc12 | 4.62 | 4.71 | 39.5% | 76.8% |
| O=c1[nH]c(-c2cc(Cc3n[nH]c(=O)c4ccccc34)ccc2F)nc2ccc(Cl)cc12 | 4.68 | 4.68 | 42.6% | 68.6% |
| COc1ccc2nc(-c3ccc(Cc4n[nH]c(=O)c5ccccc45)c(OC)c3)[nH]c(=O)c2c1 | 4.47 | 4.55 | 45.2% | 36.7% |
| Cc1cccc2nc(-c3cccc(Cc4n[nH]c(=O)c5ccccc45)c3)[nH]c(=O)c12 | 4.61 | 4.81 | 49.6% | 76.3% |
| Cc1cccc2nc(-c3ccc(Cc4n[nH]c(=O)c5ccccc45)c(F)c3)[nH]c(=O)c12 | < 4.40 | < 4.40 | 38.2% | 34.8% |
| O=c1[nH]nc(Cc2cccc(-c3nc4cccc(Cl)c4c(=O)[nH]3)c2)c2ccccc12 | 4.96 | 5.14 | 64.8% | 75.3% |
| O=c1[nH]c(-c2ccc(Cc3n[nH]c(=O)c4ccccc34)cc2)nc2ccc(F)cc12 | 4.78 | 4.85 | 47.2% | 58.2% |
| O=c1[nH]nc(Cc2ccc(F)c(-c3nc4cccc(Cl)c4c(=O)[nH]3)c2)c2ccccc12 | 4.63 | 4.66 | 40.9% | 72.8% |
| Cc1cccc2c(=O)[nH]c(-c3cc(Cc4n[nH]c(=O)c5ccccc45)ccc3F)nc12 | 4.42 | 4.45 | 31.2% | 61% |
| COc1ccc2nc(-c3ccc(Cc4n[nH]c(=O)c5ccccc45)c(F)c3)[nH]c(=O)c2c1 | 4.60 | 4.71 | 51.5% | 39.4% |
| COc1cc(OC)c2c(=O)[nH]c(-c3ccc(Cc4n[nH]c(=O)c5ccccc45)cc3)nc2c1 | 4.77 | 4.85 | 58.2% | 59.2% |
| Cc1cc(-c2nc3cccc(C)c3c(=O)[nH]2)ccc1Cc1n[nH]c(=O)c2ccccc12 | < 4.40 | 4.53 | 36.8% | 47.6% |
| O=c1[nH]nc(Cc2ccc(-c3nc4cccc(Cl)c4c(=O)[nH]3)cc2)c2ccccc12 | 4.68 | 4.81 | 48.9% | 58.5% |
| Cc1cccc2nc(-c3ccc(Cc4n[nH]c(=O)c5ccccc45)cc3)[nH]c(=O)c12 | 4.54 | 4.62 | 31.7% | 52.6% |
| O=c1[nH]c(-c2cccc(Cc3n[nH]c(=O)c4ccccc34)c2)nc2ccc(F)cc12 | 5.04 | 5.20 | 64.8% | 74.7% |
| O=c1[nH]nc(Cc2cc(F)cc(-c3nc4cccc(Cl)c4c(=O)[nH]3)c2)c2ccccc12 | 4.87 | 4.83 | 52.8% | 75.1% |
